# Biological target: T1, ALK (baculovirus expressed human ALK kinase domain F1098-K1410) (Homo sapiens, UniProt Q9UM73)
# T1 construct: human ALK kinase domain F1098-K1410; made in house
# Assay: biochemical
# Settings: not given
# Outline: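 Inhibitors were tested at 10 concentrations, and IC50 was derived from a sigmoidal fit (Min, Max, Hill slope). Kinase activity was measured as percent ATP left after a 2 h reaction at room temperature, detected by luciferase-luciferin chemiluminescence. The ATP level was set close to KM for the ALK kinase domain F1098-K1410.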
# T1 sequence (Q9UM73 1098-1410): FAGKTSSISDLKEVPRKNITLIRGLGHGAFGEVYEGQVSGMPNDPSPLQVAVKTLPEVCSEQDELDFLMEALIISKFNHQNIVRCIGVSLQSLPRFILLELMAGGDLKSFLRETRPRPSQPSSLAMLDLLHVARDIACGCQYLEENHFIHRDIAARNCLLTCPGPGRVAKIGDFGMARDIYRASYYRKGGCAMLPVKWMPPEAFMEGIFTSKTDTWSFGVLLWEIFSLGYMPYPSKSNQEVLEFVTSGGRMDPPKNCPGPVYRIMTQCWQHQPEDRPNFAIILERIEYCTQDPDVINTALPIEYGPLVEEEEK
row,IC50 [nM],SMILES
1,50 to 500,"O=C(COc1ccc(OC(F)(F)F)cc1)NCc1nc(C(=O)NCCOc2ccccc2)cs1 [Entry 122, N-[2-(phenyloxy)ethyl]-2-({[({4-[(trifluoromethyl)oxy]phenyl}oxy)acetyl]amino}methyl)-1,3-thiazole-4-carboxamide]"

# Same assay, conditions: 1 μM ATP, 4 μM poly-AEKY, 12 nM ALK, 2 hours at ambient temperature; read-out: ALK IC50
row,SMILES,IC50 [nM]
1,"O=C(COc1ccc(OC(F)(F)F)cc1)NCc1nc(C(=O)NCCc2ccc(Cl)cc2Cl)cs1 [Entry 160, N-[2-(2,4-dichlorophenyl)ethyl]-2-({[({4-[(trifluoromethyl)oxy]phenyl}oxy)acetyl]amino}methyl)-1,3-thiazole-4-carboxamide]",50 to 500
2,"Cc1ccc(CCNC(=O)c2csc(CNC(=O)COc3ccc(OC(F)(F)F)cc3)n2)cc1 [Entry 36, N-[2-(4-methylphenyl)ethyl]-2-({[({4-[(trifluoromethyl)oxy]phenyl}oxy)acetyl]amino}methyl)-1,3-thiazole-4-carboxamide]",50 to 500
3,"O=C(COc1ccc(OC(F)(F)F)cc1)NCc1nc(C(=O)NCc2ccc(F)c(Cl)c2)cs1 [Entry 191, N-[(3-chloro-4-fluorophenyl)methyl]-2-({[({4-[(trifluoromethyl)oxy]phenyl}oxy)acetyl]amino}methyl)-1,3-thiazole-4-carboxamide]",50 to 500
4,"CC(C)(C)CCNC(=O)c1csc(CNC(=O)COc2ccc(OC(F)(F)F)cc2)n1 [Entry 175, N-(3,3-dimethylbutyl)-2-({[({4-[(trifluoromethyl)oxy]phenyl}oxy)acetyl]amino}methyl)-1,3-thiazole-4-carboxamide]",50 to 500
5,"CCC(NC(=O)c1csc(CNC(=O)COc2ccc(OC(F)(F)F)cc2)n1)c1ccccc1 (stereo not drawn) [Entry 65, N-(1-phenylpropyl)-2-({[({4-[(trifluoromethyl)oxy]phenyl}oxy)acetyl]amino}methyl)-1,3-thiazole-4-carboxamide]",50 to 500
6,"O=C(COc1ccc(Cl)cc1)NCc1nc(C(=O)NCCc2ccccc2F)cs1 [Entry 215, 2-[({[(4-chlorophenyl)oxy]acetyl}amino)methyl]-N-[2-(2-fluorophenyl)ethyl]-1,3-thiazole-4-carboxamide]",50 to 500
7,"COc1ccc(OC)c(CCNC(=O)c2csc(CNC(=O)COc3ccc(OC(F)(F)F)cc3)n2)c1 [Entry 137, N-{2-[2,5-bis(methyloxy)phenyl]ethyl}-2-({[({4-[(trifluoromethyl)oxy]phenyl}oxy)acetyl]amino}methyl)-1,3-thiazole-4-carboxamide]",50 to 500
8,"O=C(COc1ccc(OC(F)(F)F)cc1)NCc1nc(C(=O)NCc2ccccc2)cs1 [Entry 194, N-(phenylmethyl)-2-({[({4-[(trifluoromethyl)oxy]phenyl}oxy)acetyl]amino}methyl)-1,3-thiazole-4-carboxamide]",50 to 500
9,"O=C(COc1ccc(OC(F)(F)F)cc1)NCc1nc(C(=O)O)cs1 [Entry 302, 2-({[({4-[(trifluoromethyl)oxy]phenyl}oxy)acetyl]amino}methyl)-1,3-thiazole-4-carboxylic acid]",> 2000
10,"CCCCOc1ccc(NC(=O)NCc2nc(C(=O)NCc3cccc(OC)c3OC)cs2)cc1 [Entry 248, N-{[2,3-bis(methyloxy)phenyl]methyl}-2-{[({[4-(butyloxy)phenyl]amino}carbonyl)amino]methyl}-1,3-thiazole-4-carboxamide]",500 to 2000
11,"O=C(COc1ccc(OC(F)(F)F)cc1)NCc1nc(C(=O)NC2CCCCCCC2)cs1 [Entry 76, N-cyclooctyl-2-({[({4-[(trifluoromethyl)oxy]phenyl}oxy)acetyl]amino}methyl)-1,3-thiazole-4-carboxamide]",50 to 500
12,"O=C(COc1ccc(OC(F)(F)F)cc1)NCc1nc(C(=O)NCCc2ccccn2)cs1 [Entry 77, N-(2-pyridin-2-ylethyl)-2-({[({4-[(trifluoromethyl)oxy]phenyl}oxy)acetyl]amino}methyl)-1,3-thiazole-4-carboxamide]",50 to 500
13,"Cc1ccc(CCNC(=O)c2coc(CNC(=O)COc3ccc(OC(F)(F)F)cc3)n2)cc1C [Entry 211, N-[2-(3,4-dimethylphenyl)ethyl]-2-({[({4-[(trifluoromethyl)oxy]phenyl}oxy)acetyl]amino}methyl)-1,3-oxazole-4-carboxamide]",50 to 500
14,"C[C@H](CNC(=O)c1csc(CNC(=O)COc2ccc(OC(F)(F)F)cc2)n1)c1ccccc1 [Entry 26, N-[(2S)-2-phenylpropyl]-2-({[({4-[(trifluoromethyl)oxy]phenyl}oxy)acetyl]amino}methyl)-1,3-thiazole-4-carboxamide]",< 50
15,"CCCCOCCCNC(=O)c1csc(CNC(=O)COc2ccc(OC(F)(F)F)cc2)n1 [Entry 37, N-[3-(butyloxy)propyl]-2-({[({4-[(trifluoromethyl)oxy]phenyl}oxy)acetyl]amino}methyl)-1,3-thiazole-4-carboxamide]",50 to 500
16,"O=C(COc1ccc(OC(F)(F)F)cc1)NCc1nc(C(=O)NCCc2ccncc2)co1 [Entry 219, N-(2-pyridin-4-ylethyl)-2-({[({4-[(trifluoromethyl)oxy]phenyl}oxy)acetyl]amino}methyl)-1,3-oxazole-4-carboxamide]",500 to 2000
17,"COc1ccccc1CNC(=O)c1csc(CNC(=O)c2cccnc2Oc2ccc(Cl)cc2)n1 [Entry 198, 2-[(4-chlorophenyl)oxy]-N-({4-[({[2-(methyloxy)phenyl]methyl}amino)carbonyl]-1,3-thiazol-2-yl}methyl)pyridine-3-carboxamide]",50 to 500
18,"COc1ccccc1CNC(=O)c1csc(CNC(=O)COc2ccc(I)cc2)n1 [Entry 82, 2-[({[(4-iodophenyl)oxy]acetyl}amino)methyl]-N-{[2-(methyloxy)phenyl]methyl}-1,3-thiazole-4-carboxamide]",50 to 500
19,"O=C(COc1ccc(OC(F)(F)F)cc1)NCc1nc(C(=O)N2CCC3CCCCC3C2)cs1 (stereo not drawn) [Entry 294, N-{[4-(octahydroisoquinolin-2(1H)-ylcarbonyl)-1,3-thiazol-2-yl]methyl}-2-({4-[(trifluoromethyl)oxy]phenyl}oxy)acetamide]",500 to 2000

# Second part, the compound after the results:
row,IC50 [nM],SMILES
1,50 to 500,"C#CC(CC)(CC)NC(=O)c1csc(CNC(=O)COc2ccc(OC(F)(F)F)cc2)n1 [Entry 147, N-(1,1-diethylprop-2-yn-1-yl)-2-({[({4-[(trifluoromethyl)oxy]phenyl}oxy)acetyl]amino}methyl)-1,3-thiazole-4-carboxamide]"
2,50 to 500,"Cc1ccc(CCNC(=O)c2csc(CNC(=O)COc3ccc(OC(F)(F)F)cc3)n2)cc1C [Entry 56, N-[2-(3,4-dimethylphenyl)ethyl]-2-({[({4-[(trifluoromethyl)oxy]phenyl}oxy)acetyl]amino}methyl)-1,3-thiazole-4-carboxamide]"
3,50 to 500,"COc1ccccc1CCNC(=O)c1csc(CNC(=O)COc2ccc(OC(F)(F)F)cc2)n1 [Entry 80, N-{2-[2-(methyloxy)phenyl]ethyl}-2-({[({4-[(trifluoromethyl)oxy]phenyl}oxy)acetyl]amino}methyl)-1,3-thiazole-4-carboxamide]"
4,50 to 500,"O=C(COc1ccc(OC(F)(F)F)cc1)NCc1nc(C(=O)NCc2ccccc2Cl)cs1 [Entry 32, N-[(2-chlorophenyl)methyl]-2-({[({4-[(trifluoromethyl)oxy]phenyl}oxy)acetyl]amino}methyl)-1,3-thiazole-4-carboxamide]"
5,50 to 500,"Cc1ccc(CNC(=O)c2csc(CNC(=O)COc3ccc(OC(F)(F)F)cc3)n2)cc1 [Entry 170, N-[(4-methylphenyl)methyl]-2-({[({4-[(trifluoromethyl)oxy]phenyl}oxy)acetyl]amino}methyl)-1,3-thiazole-4-carboxamide]"
6,50 to 500,"O=C(COc1ccc(Br)cc1)NCc1nc(C(=O)NCCc2cccc(Cl)c2)cs1 [Entry 109, 2-[({[(4-bromophenyl)oxy]acetyl}amino)methyl]-N-[2-(3-chlorophenyl)ethyl]-1,3-thiazole-4-carboxamide]"
7,500 to 2000,"NC(=O)C1CCN(C(=O)c2csc(CNC(=O)COc3ccc(OC(F)(F)F)cc3)n2)CC1 [Entry 272, 1-{[2-({[({4-[(trifluoromethyl)oxy]phenyl}oxy)acetyl]amino}methyl)-1,3-thiazol-4-yl]carbonyl}piperidine-4-carboxamide]"
8,50 to 500,"CCCCCCN(C)C(=O)c1csc(CNC(=O)COc2ccc(OC(F)(F)F)cc2)n1 [Entry 193, N-hexyl-N-methyl-2-({[({4-[(trifluoromethyl)oxy]phenyl}oxy)acetyl]amino}methyl)-1,3-thiazole-4-carboxamide]"
9,50 to 500,"COc1cc(CNC(=O)c2csc(CNC(=O)COc3ccc(OC(F)(F)F)cc3)n2)cc(OC)c1 [Entry 121, N-{[3,5-bis(methyloxy)phenyl]methyl}-2-({[({4-[(trifluoromethyl)oxy]phenyl}oxy)acetyl]amino}methyl)-1,3-thiazole-4-carboxamide]"
10,50 to 500,"CCOc1ccc(NC(=O)NCc2nc(C(=O)NCCc3cccc(Cl)c3)cs2)cc1 [Entry 184, N-[2-(3-chlorophenyl)ethyl]-2-{[({[4-(ethyloxy)phenyl]amino}carbonyl)amino]methyl}-1,3-thiazole-4-carboxamide]"
11,> 2000,"NCc1nc(C(=O)NCCc2ccccc2F)cs1 [Entry 305, 2-(aminomethyl)-N-[2-(2-fluorophenyl)ethyl]-1,3-thiazole-4-carboxamide]"
12,< 50,"O=C(COc1ccc(I)cc1)NCc1nc(C(=O)NCCc2cccc(Cl)c2)cs1 [Entry 16, N-[2-(3-chlorophenyl)ethyl]-2-[({[(4-iodophenyl)oxy]acetyl}amino)methyl]-1,3-thiazole-4-carboxamide]"
13,50 to 500,"O=C(COc1ccc(OC(F)(F)F)cc1)NCc1nc(C(=O)N2CCN(c3c(Cl)cncc3Cl)CC2)cs1 [Entry 66, N-[(4-{[4-(3,5-dichloropyridin-4-yl)piperazin-1-yl]carbonyl}-1,3-thiazol-2-yl)methyl]-2-({4-[(trifluoromethyl)oxy]phenyl}oxy)acetamide]"
